From US20060014726A1, “Derivatives of cyclic1, 3- propanediol phosphate and their action in differentiation therapy” (priority 2002, published 2006)

Columns and labels:
[1] = system: estrogen receptor-α (ER-α) in MCF-7 cells; assay: Western blot analysis of ER-α level in MCF-7 cells; format: cell-based, human; details: MCF-7 cells treated for 9 days (FIG. 9)
Experimental: Turning to FIG. 1 there are shown Western blot analyses showing the effect of 1,3cPP on the expression level of ER-α. In the ER-α assay, MCF-7 cells were incubated with 1-100 μM 1,3cPP for up to 14 days. The analysis indicates a relative increase in the level of wild type ER-α receptor (MW 70,000) with either an increase in 1,3cPP concentration or time of incubation. On days 6 and 14, a nearly 2-fold and 3-fold increase were observed, respectively (FIGS. 1A, C, D, F). […] This band could be related to one of deleted exons D3-4 (MW 49,000), D4 (MW 54,000), or D7 (MW 51,000) ER-α variants.
(§1) Breast Cancer Cells. The human breast cancer MCF-7 cell line were obtained from Prof. Hadassa Degani, of Weizmann Institute of Science, Rehovot, Israel. The cells were grown as monolayers in high glucose DMEM supplemented with 6% fetal calf serum and combined antibiotics. Human breast cancer T47D cells, clones 8 (ER^loPR^lo) and 11 (ER^+PR^+) were obtained from Prof Iafa Keydar, Tel-Aviv university and were grown in DMEM supplemented with 10% fetakl calf serum antibiotics. K562 erythroleukemia cells were obtained from Dr. Alfa Peled of Weizmann Institute of Science, Rehovot, Israel. These cells were grown in RPMI 1640 containing 10% fetal calf serum and antibiotics. All lines were grown at 37° C. in the presence of 5% CO2. The absence of Mycoplasma contamination was monitored by a Mycotrim TC test (Irvine Scientific, Santa Ana, Calif.) carried out once every 3 months.
For ER-α protein analysis, MCF-7 and T47D cells were cultured in 60×15 mm petri dishes. From the second day of culture onward, the cells were treated with various concentrations of 1,3cPP for up to 14 days. At the end of the incubation period, the medium was aspirated and the cells were washed 3 times with cold (4° C.) PBS. The cells were then gently scraped off using a rubber policeman in 0.25 ml of lysis buffer composed of 50 mM β-glycerophosphate, 1 mM DTT, 1.5 mM EGTA, 1 mM EDTA, 1% (Octylphenoxy)polyethoxyethanol (IGEPAL, Sigma, St. Louis, Mo.), a nonionic detergent, and a cocktail of protease inhibitors, including 1 mM phenylmethylsulfonyl fluoride (PMSF), 1 mM benzamidine, 10 μg/ml aprotinin, 10 μg/ml leupeptin, and 2 μg/ml pepstanin, as well as 1 mM sodium orthovanadate (Sigma, St. Louis, Mo.) as a phosphatase inhibitor. […] The protein concentration in each sample (1.5-4 mg/ml) was determined using the Coomassie Protein Assay (Pierce, Rockford, Ill.) according to the manufacturer's instructions. […] Bound antibodies were detected by horseradish peroxidase-conjugated goat anti-rabbit IgG, (Transduction Laboratories, Lexington, Ky. using the ECL detection method. Band densities were quantified by densitometry (Biorad model GS-690 Imaging densitometer) using Molecular Analyst software.

[2] = system: progesterone receptor (PR) in MCF-7 cells; assay: Western blot analysis of PR level in MCF-7 cells; format: cell-based, human; details: MCF-7 cells treated for 9 days (FIG. 10)
Experimental: In an analogous manner, a set of experiments was preformed with MCF-7 cells for determining the level of PR upon incubation with varying concentrations of 1,3-cPP for a period of up to 11 days. Similar to the augmentation observed for ER-α, an increase of up to 2.8 and 2.2 fold expression of the wild type PR (MW 98,000), was observed from 10 μM 1,3-cPP and upwards on days 8 and 11, respecively (FIGS. 3A-D).
as §1
For ER-α protein analysis, MCF-7 and T47D cells were cultured in 60×15 mm petri dishes. From the second day of culture onward, the cells were treated with various concentrations of 1,3cPP for up to 14 days. At the end of the incubation period, the medium was aspirated and the cells were washed 3 times with cold (4° C.) PBS. […] The protein concentration in each sample (1.5-4 mg/ml) was determined using the Coomassie Protein Assay (Pierce, Rockford, Ill.) according to the manufacturer's instructions. […] Bound antibodies were detected by horseradish peroxidase-conjugated goat anti-rabbit IgG, (Transduction Laboratories, Lexington, Ky. using the ECL detection method. Band densities were quantified by densitometry (Biorad model GS-690 Imaging densitometer) using Molecular Analyst software.

[3] = system: Casein Kinase in MCF-7 cells; assay: Casein Kinase level in MCF-7 cells; format: cell-based, human; details: MCF-7 cells treated for 9 days (FIG. 11)
K562 cells = system: K562 cells
Experimental: It is known from the literature that sodium butyrate derives K562 cells into the erythroid differentiation program (Sutherland et al. 1986). Base on such an observation, the ability of 1,3-cPP alone or in combination with sodium butyrate may trigger the erythroid differentiation program manifested by hemoglobin production.
K562 cells were incubated for 5 days in the presence or absence of 10 or 50 μM 1,3cPP and 1 mM butyric acid as a differentiating agent. Quantitative measurements of hemoglobin production was determined by staining of lysed cells with benzidine-peroxide reagent. The benzidine-peroxide reagent was prepared by dissolving 3,3′,5,5′-tetramethyl benzidine in 90% acetic acid and mixing with an equal volume of freshly prepared 1% hydrogen peroxide. Cell lysate, obtained by hypotonic lysing of 5×10^4 cells in 0.1 ml distilled water, was added to 0.1 ml benzidine reagent and incubated at room temperature for 10 minutes in the dark. Absorbance was measured at 515 nm and was taken as a relative index of the hemoglobin level.

| Compound | Estrogen receptor alpha level [1] | progestrone receptor level [2] | Casein Kinase level [3] | hemoglobin synthesis (K562 cells) |
| --- | --- | --- | --- | --- |
| NC1(CO)COP(=O)(O)OC1 (stereo not shown) [Example 18, 5-Amino-5-hydroxymethyl-2-oxo-2λ5-[1,3,2]dioxaphosphi-nan-2-ol] | promotion of synthesis | promotion of synthesis | promotion of Casein Kinase levels | – |
| CCCC(=O)[O-].[Na+] [sodium butyrate, reference compound] | – | – | – | only a small effect |
